How the values were obtained:
[1] = tested on: influenza virus A strain New Calcdonia (H1N1); parameters: species or system Clawn minipigs; details: minipig, in vivo
[2] = tested on: influenza A virus strain Aichi/68/2/H3N2; assay: Nasal vaccination of mice; anti-influenza IgA and IgG in nasal cavity lavage fluids and blood serum by ELISA; assay type: in vivo, BALB/c mice; details: compared with HA vaccine alone or with other AD vehicles

| Sequence | Effectiveness of AD vehicle in inducing antibody titers, in words [1] | Antibody-production-enhancing effect (IgA and/or IgG), in words [2] |
| --- | --- | --- |
| KKKKKKLLLLLLLLLLLLLLLL [K6L16, six K residues on the N-terminal side and 16 L residues on the C-terminal side] | effective | – |
| PVHLKRLLLLLLLLLLL [SP-CL11] | effective | – |
| PVHLRKLLLLLLLLLLLLLLLL (PVHLKRLLLLLLLLLLLLLLLL) [RK-SP-CL, comparison peptide; KR of the 5th-6th positions of SP-CL11 reversed to RK, more L residues] | – | not much involved in the antibody production |

From patent US8287887B2, “Antigen-and-drug vehicle comprising synthetic peptide, and mucosal vaccine using the same” (priority 2008, dated 2012)
